Key:
[1] = tested on: primary cortical neurons exposed to glutamate; assay: Glutamate excitotoxicity in primary cortical neurons; type: cell-based, mouse
Procedure: LDH Assay. LDH activity was measured using the Pierce LDH Cytotoxicity Assay Kit. Culture media was incubated with an equal volume of LDH master mix and incubated for 30 minutes at room temperature in the dark. After, the same volume of stop reagent was added and the absorbance was measured at 490 and 680 nm. Maximum LDH measurements were obtained by adding lysis buffer to release the total amount of LDH in the sample. LDH release is calculated as a percent of the maximum.
Propidium Iodide Assay. Propidium iodide (1 mg/ml, Life Technologies #P3566) was added to each culture well at a final concentration of 0.5 μg/ml. Cultures were incubated for 30 minutes at 37 degrees then washed with PBS. Cells were then fixed with 4% paraformaldehyde in PBS for 15 minutes at room temperature. After fixation, cells were washed with PBS and then mounted using mounting media containing DAPI.
In addition to increasing longevity, rapamycin treatment protects neurons from toxic stimuli such as excessive glutamate. […] Because IBET858 increased neuronal lifespan to the same extent as rapamycin, it was hypothesized that BET inhibition could also induce a protective state in neurons. To test if IBET858 can prevent neuronal death, the neurons were exposed to excitotoxic levels of glutamate, a common in vitro assay that mirrors neuronal death observed in vivo after stroke or neurodegeneration. High levels of glutamate cause a strong influx of calcium into the neuron ultimately leading to necrosis followed by apoptosis.
Neurons were treated with IBET858 for increasing durations (2 h, 24 h, 72 h or 1 week) before stimulation with an excitotoxic amount of glutamate (1 mM) on day 14 when mature synapses fully express glutamate receptors. Chronic but not acute BET inhibition increases neuronal survival in response to glutamate toxicity, as measured by the LDH assay. […] Therefore a 1 week treatment time point was used for all subsequent experiments.

BRD2 or BRD4 = assay: ChIP sequencing, BRD2 or BRD4 promoter occupancy versus gene expression; type: cell-based, mouse
Procedure: Chromatin Immunoprecipitation with Sequencing. Primary cortical neuronal cultures were washed once with PBS then fixed for 10 minutes with a 1% formaldehyde solution in PBS with protease inhibitors (Sigma #P8340) at room temperature. Fixation was quenched adding glycine to a final concentration of 0.125M (5 minutes, room temperature). 10e6 fixed cells were resuspended in 1 ml of lysis buffer (50 mM Hepes KOH, pH7.5, 140 mM NaCl, 1 mM EDTA, 10% glycerol, 0.5% NP-40, 0.25% Triton X-100) and 10 ul of protease inhibitor cocktail (PIC). Samples were rotated for 10 minutes at 4 degrees then spun at 1350 g at 4 C for 10 minutes. Pellets were resuspended in 1 ml of lysis buffer 2 (10 mM Tris-HCl pH8.0, 200 mM NaCl, 1 mM EDTA, 0.5 mM EGTA) and 10 ul PIC.). 5e6 nuclei were sonicated in lysis buffer 3 (10 mM Tris-HCl pH8.0, 100 mM NaCl, 1 mM EDTA, 0.5 mM EGTA, 0.1% Na-Deoxicholate, 0.5% N-Lauroylsarcosine) at 4 degrees for 5 cycles of 30 seconds ON/30 seconds OFF using the Diagenode bioruptor. After, 30 ul of 10% Triton-X100 was added to each sample and then spun for 15 minutes at 20,000 g at 4 degrees. Sonication efficiency was checked by running the samples on a 2% agarose gel to confirm enrichment for fragments from 200-500 bps.
Streptavidin M-280 dynabeads were blocked with 0.5% BSA solution and coupled to 7 ug of antibody (Brd4 #Ab84778, Brd2 Bethyl #A302-583A, Pol2 Ser5 #Ab5408) for at least 8 hours at 4 degrees, rotating. Antibody-coupled beads were then added to sonicated chromatin (20e6 cells for Brd2/Brd4, 10e6 for Pol2) and incubated overnight at 4 degrees. After washing the IPs eight times with wash buffer (50 mM Hepes-KOH pH7.6, 100 mM LiCl, 1 mM EDTA, 1% NP-40, 0.7% Na-Deoxycholate) and once with TE buffer (10 mM Tris-HCl, 1 mM EDTA, 50 mM NaCl), Chromatin was eluted from magnetic beads in 200 ul elution buffer ([…] Tris-HCl pH8.0, 10 mM EDTA, 1% SDS) for 45 minutes at 65 degrees. Samples were de-crosslinked overnight at 65 degrees and proteins and RNA were removed by incubating with RNAse and proteinase k. Samples were purified using the Qiagen PCR purification kit according to the manufacturers protocol.
Samples were end-repaired using the End-IT DNA End-Repair Kit (#ER0720). After 45 minutes incubation, samples were purified using the Qiagen PCR Clean up kit as described above. Samples were adenylated using a reaction mix (200 uM dATP, 1× Klenow buffer NEB2, Klenow Fragment (3′ to 5′ exo-), NEB M0212L) and incubating at 37 degrees for 30 minutes. After, samples were purified as above except using the Minelute columns to minimize sample loss. Adapters were ligated to samples using a reaction mix containing T4 DNA ligase buffer, Solexa adapter oligo mix and 1200 units of T4 DNA ligase. The samples were incubated according to the following PCR program: 1) 20 C for 15 min, 2) 4 C for 2 h, 3) 0.1 C/sec to 16 C, 4) 16 C for 20 min, 5) 0.1 C/sec to 4 C, 6) back to step 2 for 6 cycles. Samples were purified using the Minelute kit as described above. Samples were amplified using a reaction mix containing the Phusion HF buffer, 300 uM dNTP mix, 3% DMSO, diluted Solexa primers 1.0 and 2.0, and 1 unit of Phusion polymerase. Samples were amplified according to the following program: 1) 30 sec at 98 C, 2) 18 cycles of: 10 sec at 98 C, 30 sec at 65 C, 30 sec at 72 C, 3) 5 min 72 C. Prepared samples were then sequenced on the HiSeq 2000 platform by Rockefeller's Genomic Core Facility. Bioinformatic analysis was performed by the Shen Lab. Briefly, raw sequencing data was processed by using Illumina bcl2fastq2 Conversion Software v2.17. The ChIP-seq data was first checked for quality using the various metrics generated by FastQC. Raw sequencing reads were then aligned to the mouse mm9 genome using the default settings of Bowtie (v2.2.0)87. Only uniquely mapped reads were retained, and the alignments were subsequently filtered using the SAMtools package (v0.1.19)88 to remove duplicate reads. […]

Structure (SMILES): CC(=O)N1c2ccc(-c3ccc(CN4CCCCC4)cc3)cc2[C@H](Nc2ccccc2)CC1C (stereo in doubt) [IBET858]
- protection from excitotoxicity, IBET858 compared with rapamycin ([1]; 1 week IBET858 1 μM, Rapamycin 20 nM, 1 mM glutamate): as well as rapamycin
- cell death after glutamate exposure, propidium iodide ([1]; 1 week pretreatment, 1 mM glutamate): fewer neurons treated with IBET858 die
- excitotoxicity-induced neuronal death, LDH assay ([1]; 1 week pretreatment, 1 mM glutamate, day 14): almost completely prevents
- excitotoxicity-induced neuronal death, LDH assay ([1]; 72 h pretreatment, 1 mM glutamate): mild protective effect
- neuroprotective phenotype after washout, glutamate exposure ([1]; temporary pretreatment, wash out, 4 days on DMSO, 1 mM glutamate day 14): neuroprotective phenotype that is maintained even in the absence of IBET
- displacement of BET proteins from the chromatin (BRD2 or BRD4): displaces all three BET proteins from the chromatin
- down-regulated genes that are bound by Brd2 or Brd4 (BRD2 or BRD4; 1 week IBET858, 844/1391): 61%
- genes with increased promoter occupancy of BRD2 or BRD4 that are also transcriptionally upregulated (BRD2 or BRD4; 6 h IBET858): 212 genes
- genes with reduced promoter occupancy of BRD2 or BRD4 that are also transcriptionally downregulated (BRD2 or BRD4; 6 h IBET858): 528 genes
- down-regulated genes that are bound by Brd2 or Brd4 (BRD2 or BRD4; 12 h IBET858, 733/1158): 63%
- gene promoters with reduced BET binding (BRD2 or BRD4; short-term treatment 6 h): approximately 1000 gene promoters
